Measured values reported in PMC10104742, “The Determination of Polymyxin B in Critically Ill Patients by the HPLC-MS/MS Method” (International Journal of Analytical Chemistry, 2023).
Positions of bridges follow the written chain, without caps; N, C: chain ends. Non-standard residues stand in square brackets, D forms with d. Residues, ends and D or L forms follow the SMILES beside them. *: point of attachment. X1 = CC[C@H](C)CCCCC(=O)*; Dab = NCC[C@H](N)C(=O)O

How the values were obtained:
[1] = Stability of working and stock solutions; format: physicochemical
Method: Standard and IS stock solutions were prepared in Milli-Q water containing 1% FA (v/v) at 1 mg/mL (with all substances) and subpacked in EP tubes. Working solutions were diluted from the stock solution. The concentrations of PB1 in the PB1-I's working solution were 160, 120, 100, 48, 24, 12, 6, and 2 μg/mL. The quality control (QC) working solutions were 140, 80, 20, and 4 μg/mL. The IS solution, polymyxin E2, was diluted in 1% FA water to 7.5 μg/mL. All solutions were stored at −80°C.
(§1) QC samples (QCL, QCM1, QCM2, and QCH) were used to investigate the stability of the stock solutions, working solutions, and samples. Each QC was set with three parallels. The stability of plasma samples stored at room temperature (25°C) for 4 h, at 4°C in a refrigerator for 24 h, at −20°C for 37 days, and at −80°C for 97 days was investigated. The freeze-thaw stability of −20°C and −80°C freeze-thaw cycles at three times each was investigated. The stability of the stock and working solutions stored at −80°C for 97 days was investigated. The accuracy of the quality control sample should be within ±15% of the nominal concentration; the precision should be within 15%.

[2] = Stability of extracted supernatant in the autosampler; format: physicochemical; details: extracted supernatant in automatic sampler, 24 h
Method: The LC-MS/MS system consisted of an Agilent 1260 HPLC system equipped with a cooled autosampler (4°C) and an Agilent 6460 electrospray ionization-triple quadrupole mass spectrometer (Agilent Technologies, USA). The chromatographic column was BEH C18 (Waters, 2.1 × 50 mm, 1.7 μm) (Waters Corporation, USA). Ultrapure water was prepared using the Milli-Q Direct 8 (E. Merck, Darmstadt, Germany) water purification system. A Heraeus Multifuge X1R (Thermo Fisher Scientific, USA) high-speed refrigerated centrifuge was used for the centrifugation. SHIMADZU-AUW120D (Shimadzu Corporation, Japan) was used for the weighting.
(§2) Volume of 200 μL ACN with 0.2% TFA and 0.1% FA was added to a 100 μL plasma sample containing 10 μL IS solution, vortexed for 2 min, and centrifugated at 18800 g at 4°C for 15 min. The supernatant was then transferred to a 96-well plate for analysis.
QC samples (QCL, QCM1, QCM2, and QCH) were used to investigate the stability of the stock solutions, working solutions, and samples. Each QC was set with three parallels. The stability of plasma samples stored at room temperature (25°C) for 4 h, at 4°C in a refrigerator for 24 h, at −20°C for 37 days, and at −80°C for 97 days was investigated. The freeze-thaw stability of −20°C and −80°C freeze-thaw cycles at three times each was investigated. […]

[3] = Stability of PB in plasma QC samples (short-term, freeze-thaw, long-term); format: in vitro ADME, human; details: for Stability of the sample (in words): human plasma sample
Method: Blank plasma (190 μL) and 10 μL working solution were mixed to prepare calibration curves of 8000, 6000, 5000, 2400, 1200, 600, 300, and 100 ng/ml for PB1/PB1-I, and 948.5, 711.4, 592.8, 284.6, 142.3, 71.1, 35.6, and 11.9 ng/mL for PB2/PB3. Similar to the QC standards, for PB1/PB1-I, the low QC (QCL), medium QC 1 (QCM1), medium QC 2 (QCM2), and high QC (QCH) were 200, 1000, 4000, and 7000 ng/ml, respectively. For PB2/PB3, QC standards were 23.7, 118.6, 474.3, and 830.0 ng/ml. First, a 100 μL calibration sample or QC sample was removed; 10 μL IS solution, 200 μL ACN with 0.1% FA (v/v), and 0.2% TFA (v/v/v) were added successively. The samples were vortexed for 2 min to make precipate the protein fully, then centrifugated at 18800 g at 4 ℃ for 15 min. About 200 μL of the supernatant was sucked and transferred into 96-well plates for analysis.
as §2, §1

CC[C@H](C)CCCCC(=O)N[C@@H](CCN)C(=O)N[C@H](C(=O)N[C@@H](CCN)C(=O)N[C@H]1CCNC(=O)[C@H]([C@@H](C)O)NC(=O)[C@H](CCN)NC(=O)[C@H](CCN)NC(=O)[C@H](CC(C)C)NC(=O)[C@@H](Cc2ccccc2)NC(=O)[C@H](CCN)NC1=O)[C@@H](C)O [PB, Polymyxin B] (X1-[Dab]T[Dab][Dab][Dab][dF]L[Dab][Dab]T; lactam 4-C)
stable: Stability of the stock solution (in words) ([1]; stock solution at −80°C for 97 days) | Stability of the working solution (in words) ([1]; working solution at −80°C for 97 days) | Stability of the working solution (in words) ([1]; working solution stored at −20°C for 18 days) | Stability of the extracted supernatant (in words) [2] | Stability of the sample (in words) ([3]; 4°C, 24 h) | Stability of the sample (in words) ([3]; room temperature, 4 h) | Stability of the sample (in words) ([3]; −20°C, three freeze-thaw cycles) | Stability of the sample (in words) ([3]; −80°C, three freeze-thaw cycles) | Stability of the samples (in words) ([3]; human plasma samples stored at −20°C for 37 days) | Stability of the samples (in words) ([3]; human plasma samples stored at −80°C for 97 days)
